Measured values: patent publication US20220274954A1, “SUBSTITUTED N-PHENYL-N-AMINOUARCILS AND SALTS THEREOF AND USE THEREOF AS HERBICIDAL AGENTS” (Bayer Aktiengesellschaft, priority 2019, published 2022)

Legend:
Type in all cases: in vivo
[1] = test system: Echinochloa crus-galli; experiment: Post-emergence herbicidal action; conditions: Echinochloa crus-galli, 504 h, read-out: Echinochloa crus-galli (efficacy in %)
Summary of the method: (§1)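 Plants grown from seed in sandy loam in the greenhouse were sprayed at the one-leaf stage, 2 to 3 weeks after sowing, with WP or EC formulations in water plus 0.5% additive at 20 g/ha or less. Activity was rated visually after about 3 weeks against untreated controls (100% = plants died, 0% = like control).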

[2] = test system: Polygonum convolvulus; experiment: Post-emergence herbicidal action; conditions: Fallopia convolvulus, 504 h, application rate 20 g/ha, read-out: Polygonum convolvulus (efficacy in %)
Summary of the method: as §1

[3] = test system: Abutilon theophrasti; experiment: Post-emergence herbicidal action; conditions: Abutilon theophrasti, 504 h, read-out: Abutilon theophrasti (efficacy in %)
Summary of the method: as §1

[4] = test system: Pharbitis purpurea; experiment: Post-emergence herbicidal action; conditions: Ipomoea purpurea, 504 h, application rate 5 g/ha, read-out: Pharbitis purpurea (efficacy in %)
Summary of the method: as §1

[5] = test system: Amaranthus retroflexus; experiment: Post-emergence herbicidal action; conditions: Amaranthus retroflexus, 504 h, read-out: Amaranthus retroflexus (efficacy in %)
Summary of the method: as §1

[6] = test system: Stellaria media; experiment: Post-emergence herbicidal action; conditions: application rate 20 g/ha
Summary of the method: as §1

[7] = test system: Setaria viridis; experiment: Post-emergence herbicidal action; conditions: 504 h, read-out: Setaria viridis (efficacy in %)
Summary of the method: as §1

[8] = test system: Digitaria sanguinalis; experiment: Post-emergence herbicidal action; conditions: 504 h, application rate 20 g/ha, read-out: Digitaria sanguinalis (efficacy in %)
Summary of the method: as §1

[9] = test system: Viola tricolor; experiment: Post-emergence herbicidal action; conditions: Viola tricolor, 504 h, read-out: Viola tricolor (efficacy in %)
Summary of the method: as §1

[10] = test system: Veronica persica; experiment: Post-emergence herbicidal action; conditions: Veronica persica, 504 h, read-out: Veronica persica (efficacy in %)
Summary of the method: as §1

[11] = test system: Matricaria inodora; experiment: Post-emergence herbicidal action; conditions: Tripleurospermum inodorum, 504 h, read-out: Matricaria inodora (efficacy in %)
Summary of the method: as §1

[12] = test system: Echinochloa crus-galli; experiment: Pre-emergence herbicidal action; conditions: application rate 80 g/ha, scored after about 3 weeks
Excerpt: (§2) Seeds of monocotyledonous and dicotyledonous weed plants and crop plants were placed in plastic or organic planting pots and covered with soil. The compounds of the invention, formulated in the form of wettable powders (WP) or as emulsion concentrates (EC), were then applied to the surface of the covering soil as aqueous suspension or emulsion with addition of 0.5% additive at a water application rate equivalent to […] (converted). After the treatment, the pots were placed in a greenhouse and kept under good growth conditions for the test plants. After about 3 weeks, the effect of the preparations was scored visually in comparison with untreated controls as percentages. For example, 100% activity=the plants have died, 0% activity=like control plants.
(§3) Tables B1 to B11 below show the effects of selected compounds of the general formula (I) according to Tables I.1 to I.34 on various harmful plants and at an application rate corresponding to 80 g/ha and less, which were obtained by the experimental procedure mentioned above.

[13] = test system: Lolium rigidum; experiment: Pre-emergence herbicidal action; conditions: application rate 80 g/ha, scored after about 3 weeks
Excerpt: as §2, §3

[14] = test system: Polygonum convolvulus; experiment: Pre-emergence herbicidal action; conditions: scored after about 3 weeks
Excerpt: as §2, §3

[15] = test system: Abutilon theophrasti; experiment: Pre-emergence herbicidal action; conditions: application rate 80 g/ha, scored after about 3 weeks
Excerpt: as §2, §3

[16] = test system: Pharbitis purpurea; experiment: Pre-emergence herbicidal action; conditions: application rate 80 g/ha, scored after about 3 weeks
Excerpt: as §2, §3

[17] = test system: Alopecurus myosuroides; experiment: Pre-emergence herbicidal action; conditions: application rate 80 g/ha
Excerpt: as §2, §3

[18] = test system: Amaranthus retroflexus; experiment: Pre-emergence herbicidal action; conditions: scored after about 3 weeks
Excerpt: as §2, §3

[19] = test system: Setaria viridis; experiment: Pre-emergence herbicidal action; conditions: scored after about 3 weeks
Excerpt: as §2, §3

[20] = test system: Digitaria sanguinalis; experiment: Pre-emergence herbicidal action; conditions: scored after about 3 weeks
Excerpt: as §2, §3

[21] = test system: Viola tricolor; experiment: Pre-emergence herbicidal action; conditions: scored after about 3 weeks
Excerpt: as §2, §3

[22] = test system: Veronica persica; experiment: Pre-emergence herbicidal action; conditions: scored after about 3 weeks
Excerpt: as §2, §3

[23] = test system: Matricaria inodora; experiment: Pre-emergence herbicidal action; conditions: scored after about 3 weeks
Excerpt: as §2, §3

[24] = test system: Brassica napus; experiment: Pre-emergence crop plant compatibility; conditions: application rate 20 g/ha
Excerpt: as §2
(§4) Here, the observed effects on selected crop plants are stated in comparison to the untreated controls (values in %).

[25] = test system: Zea mays; experiment: Pre-emergence crop plant compatibility; conditions: application rate 20 g/ha
Excerpt: as §2, §4

[26] = test system: Triticum aestivum; experiment: Pre-emergence crop plant compatibility; conditions: application rate 20 g/ha
Excerpt: as §2, §4

[27] = test system: Brassica napus; experiment: Post-emergence crop plant compatibility; conditions: application rate 1.25 g/ha
Summary of the method: (§5)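 Values are visual % effects about 3 weeks after treatment, relative to untreated plants (0% = like control, 100% = plant death). Crops sown in sandy loam under greenhouse conditions were treated post-emergence at the one-leaf stage (2–3 weeks). Compounds were applied as WP or EC sprays with 0.5% additive at […] water.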

[28] = test system: Glycine max; experiment: Post-emergence crop plant compatibility
Summary of the method: as §5

[29] = test system: Zea mays; experiment: Post-emergence crop plant compatibility; conditions: application rate 1.25 g/ha
Summary of the method: as §5

[30] = test system: Oryza sativa; experiment: Post-emergence crop plant compatibility
Summary of the method: as §5

[31] = test system: Solanum nigrum; experiment: Comparative post-emergence herbicidal action (with Mero and AMS); conditions: with 1.5 l/ha Mero and 2 kg/ha AMS, rated after 21 days
Excerpt: (§6) Seeds of mono- or dicotyledonous weed plants were sown in pots (diameter 7 cm) with sandy loam soil, germinated under optimium growth conditions and cultivated for 21 days.
(§7) The compounds, formulated in the form of wettable powders (WP) or as emulsion concentrates (EC), were sprayed onto the green parts of the plants as aqueous suspension or emulsion with addition of 1.5 l/ha Mero and 2 kg/ha AMS at a water application rate of 300 l/ha (converted).
(§8) After the test plants had been kept in the greenhouse under optimum growth conditions for 21 days, the activity of the preparations was rated visually in comparison to untreated control plants.
(§9) For example, 100% action=the plants have died and
(§10) 0% action=like control plants.
(§11) Tables C1-C3 below show the effects of a compound according to the invention (I.14-442) and a structurally related compound from WO2019/101551 (No. 16) on various harmful plants and at an application rate corresponding to 18 g/ha and less, which were obtained by the experimental procedure mentioned above.

[32] = test system: Xanthium strumarium; experiment: as above; conditions: with 1.5 l/ha Mero and 2 kg/ha AMS, rated after 21 days
Excerpt: as §6, §7, §8, §9, §10, §11

[33] = test system: Polygonum convolvulus; experiment: as above; conditions: with 1.5 l/ha Mero and 2 kg/ha AMS, rated after 21 days
Excerpt: as §6, §7, §8, §9, §10, §11

[34] = test system: Glycine max; experiment: Comparative post-emergence crop plant compatibility (with Mero and AMS)
Excerpt: as §6, §7, §8, §9, §10
(§12) Tables C4 and C5 below show the effects of a compound according to the invention (114-442) and a compound from WO2019/101551 (No. 16) on various crop plants and at an application rate corresponding to 6 g/ha and less, which were obtained by the experimental procedure mentioned above.

[35] = test system: Zea mays; experiment: as above
Excerpt: as §6, §7, §8, §9, §10, §12

CCOC(=O)COc1ncccc1Sc1cc(-n2c(=O)cc(C(F)(F)F)n(N)c2=O)c(F)cc1Cl [I.1-442, Ethyl {[3-({5-[3-amino-2,6-dioxo-4-(trifluoromethyl)-3,6-dihydropyrimidin-1(2H)-yl]-2-chloro-4-fluorophenyl}sulfanyl)pyridin-2-yl]oxy}acetate]
pest or weed control at 5 g/ha ([1]; application rate 5 g/ha): 100%
pest or weed control at 20 g/ha ([1]; application rate 20 g/ha): 100%
pest or weed control at 20 g/ha [2]: 100%
pest or weed control at 5 g/ha ([3]; application rate 5 g/ha): 100%
pest or weed control at 20 g/ha ([3]; application rate 20 g/ha): 100%
pest or weed control at 5 g/ha [4]: 100%
pest or weed control at 5 g/ha ([5]; application rate 5 g/ha): 100%
pest or weed control at 20 g/ha ([5]; application rate 20 g/ha): 100%
Stellaria media (efficacy in %) [6]: 100%
pest or weed control at 5 g/ha ([7]; application rate 5 g/ha): 100%
pest or weed control at 20 g/ha ([7]; application rate 20 g/ha): 100%
pest or weed control at 20 g/ha [8]: 100%
pest or weed control at 5 g/ha ([9]; application rate 5 g/ha): 100%
pest or weed control at 20 g/ha ([9]; application rate 20 g/ha): 100%
pest or weed control at 5 g/ha ([10]; application rate 5 g/ha): 100%
pest or weed control at 20 g/ha ([10]; application rate 20 g/ha): 100%
pest or weed control at 5 g/ha ([11]; application rate 5 g/ha): 90%
pest or weed control at 20 g/ha ([11]; application rate 20 g/ha): 100%
Echinochloa crus-galli (efficacy in %) [12]: 100%
Lolium rigidum (efficacy in %) [13]: 100%
Polygonum convolvulus (efficacy in %) ([14]; application rate 20 g/ha): 90%
Polygonum convolvulus (efficacy in %) ([14]; application rate 80 g/ha): 100%
Abutilon theophrasti (efficacy in %) [15]: 100%
Pharbitis purpurea (efficacy in %) [16]: 100%
Alopecurus myosuroides (efficacy in %) [17]: 90%
Amaranthus retroflexus (efficacy in %) ([18]; application rate 20 g/ha): 100%
Amaranthus retroflexus (efficacy in %) ([18]; application rate 80 g/ha): 100%
Setaria viridis (efficacy in %) ([19]; application rate 20 g/ha): 90%
Setaria viridis (efficacy in %) ([19]; application rate 80 g/ha): 100%
Digitaria sanguinalis (efficacy in %) ([20]; application rate 20 g/ha): 100%
Digitaria sanguinalis (efficacy in %) ([20]; application rate 80 g/ha): 100%
Viola tricolor (efficacy in %) ([21]; application rate 20 g/ha): 100%
Viola tricolor (efficacy in %) ([21]; application rate 80 g/ha): 100%
Veronica persica (efficacy in %) ([22]; application rate 20 g/ha): 80%
Veronica persica (efficacy in %) ([22]; application rate 80 g/ha): 100%
Matricaria inodora (efficacy in %) ([23]; application rate 20 g/ha): 100%
Matricaria inodora (efficacy in %) ([23]; application rate 80 g/ha): 100%
Brassica napus (efficacy in %) [24]: 0%
Zea mays (efficacy in %) [25]: 0%
Triticum aestivum (efficacy in %) [26]: 10%
Brassica napus (efficacy in %) [27]: 10%
Glycine max (efficacy in %) ([28]; application rate 1.25 g/ha): 10%
Glycine max (efficacy in %) ([28]; application rate 5 g/ha): 20%
Zea mays (efficacy in %) [29]: 20%
Oryza sativa (efficacy in %) ([30]; application rate 1.25 g/ha): 10%
Oryza sativa (efficacy in %) ([30]; application rate 5 g/ha): 20%

CCOC(=O)COc1ncccc1Oc1cc(-n2c(=O)c(C)c(C(F)(F)F)n(C)c2=O)c(F)cc1Cl [No. 16]
Solanum nigrum (efficacy in %) ([31]; application rate 6 g/ha): 80%
Solanum nigrum (efficacy in %) ([31]; application rate 18 g/ha): 80%
Xanthium strumarium (efficacy in %) ([32]; application rate 6 g/ha): 50%
Xanthium strumarium (efficacy in %) ([32]; application rate 18 g/ha): 85%
Polygonum convolvulus (efficacy in %) ([33]; application rate 6 g/ha): 65%
Polygonum convolvulus (efficacy in %) ([33]; application rate 18 g/ha): 75%
Glycine max (efficacy in %) ([34]; application rate 2 g/ha): 40%
Glycine max (efficacy in %) ([34]; application rate 6 g/ha): 50%
Zea mays (efficacy in %) ([35]; application rate 2 g/ha): 40%
Zea mays (efficacy in %) ([35]; application rate 6 g/ha): 50%
